Active and inactive are the calls of the source. No cut-off for these calls is given here.
Legend:
Anastrepha ludens [1] = assay: Reduction of fertility in 7 days old adult of Anastrepha ludens assessed as reduction of egg hatching at 30 mg/g treated with diet measured after 3 days oviposition; format: functional; set-up: scale not given: the % may be the effect or the level left
Anastrepha striata [2] = assay: Reduction of fertility in 7 days old adult of Anastrepha striata assessed as reduction of egg hatching at 0.1 mg/g treated with diet measured after 9 days oviposition; format: functional; set-up: scale not given: the % may be the effect or the level left
Anastrepha serpentina [3] = assay: Reduction of fertility in 7 days old adult of Anastrepha serpentina assessed as reduction of egg hatching at 0.1 mg/g treated with diet measured after 5 days oviposition; format: functional; set-up: scale not given: the % may be the effect or the level left
Anastrepha serpentina [4] = assay: Reduction of fertility in 7 days old adult of Anastrepha serpentina assessed as reduction of egg hatching at 0.5 mg/g treated with diet measured after 7 days oviposition; format: functional; set-up: scale not given: the % may be the effect or the level left
Anastrepha serpentina [5] = assay: Reduction of fertility in 7 days old adult of Anastrepha serpentina assessed as reduction of egg hatching at 5 mg/g treated with diet measured after 5 days oviposition; format: functional; set-up: scale not given: the % may be the effect or the level left
Anastrepha serpentina [6] = assay: Reduction of fertility in 7 days old adult of Anastrepha serpentina assessed as reduction of egg hatching at 0.1 mg/g treated with diet measured after 3 days oviposition; format: functional; set-up: scale not given: the % may be the effect or the level left
Anastrepha striata [7] = assay: Effect on fecundity in 7 days old adult of Anastrepha striata at 0.1 to 30 mg/g treated with diet after 24 hr; format: functional, organism-based
Anastrepha obliqua [8] = assay: Reduction of fertility in 7 days old adult of Anastrepha obliqua assessed as reduction of egg hatching at 0.5 mg/g treated with diet measured after 9 days oviposition; format: functional; set-up: scale not given: the % may be the effect or the level left
Anastrepha ludens [9] = assay: Reduction of fertility in 7 days old adult of Anastrepha ludens assessed as reduction of egg hatching at 5 mg/g treated with diet measured after 3 days oviposition; format: functional; set-up: scale not given: the % may be the effect or the level left
Anastrepha ludens [10] = assay: Effect on fertility in 7 days old adult male of Anastrepha ludens at 30 mg/g treated with diet after 24 hr in presence of untreated adult female of Anastrepha ludens; format: functional, organism-based
Anastrepha obliqua [11] = assay: Reduction of fertility in 7 days old adult of Anastrepha obliqua assessed as reduction of egg hatching at 0.1 mg/g treated with diet measured after 5 days oviposition; format: functional; set-up: scale not given: the % may be the effect or the level left
Anastrepha obliqua [12] = assay: Reduction of fertility in 7 days old adult of Anastrepha obliqua assessed as reduction of egg hatching at 10 mg/g treated with diet measured after 3 days oviposition; format: functional; set-up: scale not given: the % may be the effect or the level left
Anastrepha obliqua [13] = assay: Reduction of fertility in 7 days old adult of Anastrepha obliqua assessed as reduction of egg hatching at 0.5 mg/g treated with diet measured after 5 days oviposition; format: functional; set-up: scale not given: the % may be the effect or the level left
Anastrepha serpentina [14] = assay: Reduction of fertility in 7 days old adult of Anastrepha serpentina assessed as reduction of egg hatching at 10 mg/g treated with diet measured after 11 days oviposition; format: functional; set-up: scale not given: the % may be the effect or the level left
Anastrepha striata [15] = assay: Reduction of fertility in 7 days old adult of Anastrepha striata assessed as reduction of egg hatching at 30 mg/g treated with diet measured after 7 days oviposition; format: functional; set-up: scale not given: the % may be the effect or the level left
Anastrepha obliqua [16] = assay: Reduction of fertility in 7 days old adult of Anastrepha obliqua assessed as reduction of egg hatching at 10 mg/g treated with diet measured after 5 days oviposition; format: functional; set-up: scale not given: the % may be the effect or the level left
Anastrepha serpentina [17] = assay: Reduction of fertility in 7 days old adult of Anastrepha serpentina assessed as reduction of egg hatching at 10 mg/g treated with diet measured after 1 day oviposition; format: functional; set-up: scale not given: the % may be the effect or the level left
Anastrepha obliqua [18] = assay: Reduction of fertility in 7 days old adult of Anastrepha obliqua assessed as reduction of egg hatching at 1 mg/g treated with diet measured after 7 days oviposition; format: functional; set-up: scale not given: the % may be the effect or the level left
Anastrepha serpentina [19] = assay: Reduction of fertility in 7 days old adult of Anastrepha serpentina assessed as reduction of egg hatching at 30 mg/g treated with diet measured after 11 days oviposition; format: functional; set-up: scale not given: the % may be the effect or the level left
Anastrepha obliqua [20] = assay: Effect on fertility in 7 days old adult female of Anastrepha obliqua at 30 mg/g treated with diet after 24 hr in presence of untreated adult male of Anastrepha obliqua; format: functional, organism-based
Anastrepha serpentina [21] = assay: Reduction of fertility in 7 days old adult of Anastrepha serpentina assessed as reduction of egg hatching at 1 mg/g treated with diet measured after 1 day oviposition; format: functional; set-up: scale not given: the % may be the effect or the level left
Anastrepha striata [22] = assay: Reduction of fertility in 7 days old adult of Anastrepha striata assessed as reduction of egg hatching at 0.5 mg/g treated with diet measured after 5 days oviposition; format: functional; set-up: scale not given: the % may be the effect or the level left
Anastrepha serpentina [23] = assay: Reduction of fertility in 7 days old adult of Anastrepha serpentina assessed as reduction of egg hatching at 0.5 mg/g treated with diet measured after 5 days oviposition; format: functional; set-up: scale not given: the % may be the effect or the level left
Anastrepha striata [24] = assay: Reduction of fertility in 7 days old adult of Anastrepha striata assessed as reduction of egg hatching at 30 mg/g treated with diet measured after 11 days oviposition; format: functional; set-up: scale not given: the % may be the effect or the level left
Anastrepha obliqua [25] = assay: Reduction of fertility in 7 days old adult of Anastrepha obliqua assessed as reduction of egg hatching at 0.5 mg/g treated with diet measured after 1 day oviposition; format: functional; set-up: scale not given: the % may be the effect or the level left
Anastrepha serpentina [26] = assay: Reduction of fertility in 7 days old adult of Anastrepha serpentina assessed as reduction of egg hatching at 0.5 mg/g treated with diet measured after 11 days oviposition; format: functional; set-up: scale not given: the % may be the effect or the level left
Anastrepha ludens [27] = assay: Reduction of fertility in 7 days old adult of Anastrepha ludens assessed as reduction of egg hatching at 0.1 mg/g treated with diet measured after 9 days oviposition; format: functional; set-up: scale not given: the % may be the effect or the level left
Anastrepha serpentina [28] = assay: Reduction of fertility in 7 days old adult of Anastrepha serpentina assessed as reduction of egg hatching at 30 mg/g treated with diet measured after 1 day oviposition; format: functional; set-up: scale not given: the % may be the effect or the level left
Anastrepha striata [29] = assay: Reduction of fertility in 7 days old adult of Anastrepha striata assessed as reduction of egg hatching at 1 mg/g treated with diet measured after 5 days oviposition; format: functional; set-up: scale not given: the % may be the effect or the level left
Anastrepha obliqua [30] = assay: Reduction of fertility in 7 days old adult of Anastrepha obliqua assessed as reduction of egg hatching at 1 mg/g treated with diet measured after 5 days oviposition; format: functional; set-up: scale not given: the % may be the effect or the level left
Anastrepha serpentina [31] = assay: Reduction of fertility in 7 days old adult of Anastrepha serpentina assessed as reduction of egg hatching at 0.5 mg/g treated with diet measured after 3 days oviposition; format: functional; set-up: scale not given: the % may be the effect or the level left
Anastrepha obliqua [32] = assay: Reduction of fertility in 7 days old adult of Anastrepha obliqua assessed as reduction of egg hatching at 0.1 mg/g treated with diet measured after 11 days oviposition; format: functional; set-up: scale not given: the % may be the effect or the level left
Anastrepha ludens [33] = assay: Reduction of fertility in 7 days old adult of Anastrepha ludens assessed as reduction of egg hatching at 30 mg/g treated with diet measured after 7 days oviposition; format: functional; set-up: scale not given: the % may be the effect or the level left
Anastrepha ludens [34] = assay: Reduction of fertility in 7 days old adult of Anastrepha ludens assessed as reduction of egg hatching at 10 mg/g treated with diet measured after 3 days oviposition; format: functional; set-up: scale not given: the % may be the effect or the level left
Anastrepha obliqua [35] = assay: Reduction of fertility in 7 days old adult of Anastrepha obliqua assessed as reduction of egg hatching at 30 mg/g treated with diet measured after 7 days oviposition; format: functional; set-up: scale not given: the % may be the effect or the level left
Anastrepha ludens [36] = assay: Reduction of fertility in 7 days old adult of Anastrepha ludens assessed as reduction of egg hatching at 0.5 mg/g treated with diet measured after 9 days oviposition; format: functional; set-up: scale not given: the % may be the effect or the level left
Anastrepha ludens [37] = assay: Reduction of fertility in 7 days old adult of Anastrepha ludens assessed as reduction of egg hatching at 1 mg/g treated with diet measured after 11 days oviposition; format: functional; set-up: scale not given: the % may be the effect or the level left
Anastrepha serpentina [38] = assay: Reduction of fertility in 7 days old adult of Anastrepha serpentina assessed as reduction of egg hatching at 10 mg/g treated with diet measured after 9 days oviposition; format: functional; set-up: scale not given: the % may be the effect or the level left
Anastrepha obliqua [39] = assay: Effect on fecundity in 7 days old adult female of Anastrepha obliqua at 30 mg/g treated with diet after 24 hr in presence of untreated adult male of Anastrepha obliqua; format: functional, organism-based
Anastrepha striata [40] = assay: Effect on fertility in 7 days old adult female of Anastrepha striata at 30 mg/g treated with diet after 24 hr in presence of untreated adult male of Anastrepha striata; format: functional, organism-based

## O=C(NC(=O)c1c(F)cccc1F)Nc1cc(Cl)c(OC(F)(F)C(F)C(F)(F)F)cc1Cl (racemic) [LUFENURON]
Anastrepha ludens [1]
  Activity: 2.7%
Anastrepha striata [2]
  Activity: 70.7%
Anastrepha serpentina [3]
  Activity: 74.6%
Anastrepha serpentina [4]
  Activity: 86.7%
Anastrepha serpentina [5]
  Activity: 83.1%
Anastrepha serpentina [6]
  Activity: 95%
Anastrepha striata [7]
  Activity: Active
Anastrepha obliqua [8]
  Activity: 4.7%
Anastrepha ludens [9]
  Activity: 16%
Anastrepha ludens [10]
  Activity: inactive
Anastrepha obliqua [11]
  Activity: 8.7%
Anastrepha obliqua [12]
  Activity: 1.3%
Anastrepha obliqua [13]
  Activity: 0%
Anastrepha serpentina [14]
  Activity: 79.3%
Anastrepha striata [15]
  Activity: 0.7%
Anastrepha obliqua [16]
  Activity: 0%
Anastrepha serpentina [17]
  Activity: 18.3%
Anastrepha obliqua [18]
  Activity: 0.7%
Anastrepha serpentina [19]
  Activity: 78%
Anastrepha obliqua [20]
  Activity: inactive
Anastrepha serpentina [21]
  Activity: 42.7%
Anastrepha striata [22]
  Activity: 14%
Anastrepha serpentina [23]
  Activity: 93.3%
Anastrepha striata [24]
  Activity: 8%
Anastrepha obliqua [25]
  Activity: 8.7%
Anastrepha serpentina [26]
  Activity: 86%
Anastrepha ludens [27]
  Activity: 44.7%
Anastrepha serpentina [28]
  Activity: 49.2%
Anastrepha striata [29]
  Activity: 4.5%
Anastrepha obliqua [30]
  Activity: 0%
Anastrepha serpentina [31]
  Activity: 87.3%
Anastrepha obliqua [32]
  Activity: 10.7%
Anastrepha ludens [33]
  Activity: 4%
Anastrepha ludens [34]
  Activity: 4.7%
Anastrepha obliqua [35]
  Activity: 0.7%
Anastrepha ludens [36]
  Activity: 16%
Anastrepha ludens [37]
  Activity: 40%
Anastrepha serpentina [38]
  Activity: 85.3%
Anastrepha obliqua [39]
  Activity: inactive
Anastrepha striata [40]
  Activity: inactive

Reference: ChEMBL document CHEMBL3045535, “Evaluation of lufenuron as a chemosterilant against fruit flies of the genus Anastrepha (Diptera: Tephritidae)” (2010)
